According to patent US12479847B2 (DANA-FARBER CANCER INSTITUTE, INC., priority 2019, dated 2025):
Read-outs that look alike come from different tables or passages of the source.

What was measured:
Test in all cases: KINOMEscan (ScanMAX) kinase profiling
Format in all cases: binding
panel of 468 kinases [1] = biological target: T1, panel of 468 kinases (Homo sapiens, UniProt O75747); conditions: PIK3C2G; 1 μM; read-out: % control
T1 construct: purchased KINOMEscan (ScanMAX) service
T1 sequence (O75747 1-1486): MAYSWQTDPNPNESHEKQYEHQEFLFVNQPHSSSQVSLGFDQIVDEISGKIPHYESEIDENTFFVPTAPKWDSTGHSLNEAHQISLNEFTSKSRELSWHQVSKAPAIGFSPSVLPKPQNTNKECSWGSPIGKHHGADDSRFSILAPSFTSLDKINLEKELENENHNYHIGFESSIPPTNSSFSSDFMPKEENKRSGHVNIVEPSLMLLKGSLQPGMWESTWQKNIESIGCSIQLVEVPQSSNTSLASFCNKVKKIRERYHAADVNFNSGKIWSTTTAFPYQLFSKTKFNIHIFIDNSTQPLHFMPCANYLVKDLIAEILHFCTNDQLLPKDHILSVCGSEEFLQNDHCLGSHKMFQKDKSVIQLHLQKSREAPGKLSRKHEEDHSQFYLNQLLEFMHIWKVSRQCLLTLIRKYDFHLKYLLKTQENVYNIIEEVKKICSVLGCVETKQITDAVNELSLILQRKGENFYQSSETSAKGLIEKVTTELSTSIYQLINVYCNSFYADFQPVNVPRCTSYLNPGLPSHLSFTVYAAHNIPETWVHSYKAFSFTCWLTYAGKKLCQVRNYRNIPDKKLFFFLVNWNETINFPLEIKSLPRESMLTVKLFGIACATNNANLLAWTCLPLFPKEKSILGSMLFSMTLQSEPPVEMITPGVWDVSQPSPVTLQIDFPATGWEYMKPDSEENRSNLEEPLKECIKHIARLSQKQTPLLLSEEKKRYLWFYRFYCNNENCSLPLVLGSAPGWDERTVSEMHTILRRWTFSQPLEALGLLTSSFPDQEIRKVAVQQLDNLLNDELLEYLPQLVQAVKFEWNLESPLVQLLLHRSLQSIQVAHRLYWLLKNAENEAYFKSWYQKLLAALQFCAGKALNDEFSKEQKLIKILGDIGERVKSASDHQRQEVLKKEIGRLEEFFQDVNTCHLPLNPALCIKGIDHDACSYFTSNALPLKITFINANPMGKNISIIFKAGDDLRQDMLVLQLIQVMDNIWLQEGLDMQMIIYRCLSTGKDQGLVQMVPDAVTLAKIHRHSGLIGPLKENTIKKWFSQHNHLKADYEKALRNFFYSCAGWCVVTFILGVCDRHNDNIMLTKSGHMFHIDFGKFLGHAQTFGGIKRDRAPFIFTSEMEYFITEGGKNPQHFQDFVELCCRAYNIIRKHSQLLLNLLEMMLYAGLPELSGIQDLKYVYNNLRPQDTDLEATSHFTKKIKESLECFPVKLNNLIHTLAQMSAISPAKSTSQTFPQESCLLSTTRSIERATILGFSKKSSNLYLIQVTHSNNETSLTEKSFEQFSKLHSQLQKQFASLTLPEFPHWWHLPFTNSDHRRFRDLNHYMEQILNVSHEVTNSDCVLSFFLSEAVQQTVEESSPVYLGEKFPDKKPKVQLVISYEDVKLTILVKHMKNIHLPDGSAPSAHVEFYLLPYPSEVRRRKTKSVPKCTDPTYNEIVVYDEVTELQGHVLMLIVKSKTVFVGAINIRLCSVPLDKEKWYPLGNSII

panel of 468 kinases [2] = biological target: T2, panel of 468 kinases (Homo sapiens, UniProt P00533, DEL752-759); conditions: EGFR(S752-I759del); 1 μM; read-out: % control
T2 construct: purchased KINOMEscan (ScanMAX) service

panel of 468 kinases [3] = biological target: T3, panel of 468 kinases (Homo sapiens, UniProt P36888); conditions: 1 μM, read-out: % control
T3 construct: purchased KINOMEscan (ScanMAX) service
T3 sequence (P36888 27-993): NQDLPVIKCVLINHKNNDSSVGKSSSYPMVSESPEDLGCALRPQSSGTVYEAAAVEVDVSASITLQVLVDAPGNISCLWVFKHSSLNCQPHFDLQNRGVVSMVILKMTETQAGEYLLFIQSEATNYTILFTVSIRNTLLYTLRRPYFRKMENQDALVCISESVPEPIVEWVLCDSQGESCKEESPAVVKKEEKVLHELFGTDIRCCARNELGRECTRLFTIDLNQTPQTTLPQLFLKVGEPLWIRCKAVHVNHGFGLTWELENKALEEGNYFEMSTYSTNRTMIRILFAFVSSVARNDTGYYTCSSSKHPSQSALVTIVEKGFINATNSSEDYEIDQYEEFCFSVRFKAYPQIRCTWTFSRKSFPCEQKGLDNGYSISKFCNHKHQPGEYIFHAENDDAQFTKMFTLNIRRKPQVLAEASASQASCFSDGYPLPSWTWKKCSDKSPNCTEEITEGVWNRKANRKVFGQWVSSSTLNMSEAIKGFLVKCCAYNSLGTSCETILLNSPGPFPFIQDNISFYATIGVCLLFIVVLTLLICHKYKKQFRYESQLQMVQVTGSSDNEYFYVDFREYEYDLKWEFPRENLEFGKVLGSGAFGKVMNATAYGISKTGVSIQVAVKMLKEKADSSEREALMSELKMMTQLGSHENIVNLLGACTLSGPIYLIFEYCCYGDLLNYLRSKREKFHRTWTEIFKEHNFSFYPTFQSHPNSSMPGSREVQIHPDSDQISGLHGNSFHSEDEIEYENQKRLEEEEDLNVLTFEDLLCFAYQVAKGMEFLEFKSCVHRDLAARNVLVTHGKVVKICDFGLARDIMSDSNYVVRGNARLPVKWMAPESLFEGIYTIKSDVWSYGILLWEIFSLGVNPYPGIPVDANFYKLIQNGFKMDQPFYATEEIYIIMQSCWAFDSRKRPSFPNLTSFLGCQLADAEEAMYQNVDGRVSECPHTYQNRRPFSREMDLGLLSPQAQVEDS

panel of 468 kinases [4] = biological target: T4, panel of 468 kinases (Homo sapiens, UniProt Q14004); conditions: CDC2L5; 1 μM; read-out: % control
T4 construct: purchased KINOMEscan (ScanMAX) service

panel of 468 kinases [5] = biological target: T5, panel of 468 kinases (Homo sapiens, UniProt Q9P0L2); conditions: MARK1; 1 μM; read-out: % control
T5 construct: purchased KINOMEscan (ScanMAX) service
T5 sequence (Q9P0L2 whole entry): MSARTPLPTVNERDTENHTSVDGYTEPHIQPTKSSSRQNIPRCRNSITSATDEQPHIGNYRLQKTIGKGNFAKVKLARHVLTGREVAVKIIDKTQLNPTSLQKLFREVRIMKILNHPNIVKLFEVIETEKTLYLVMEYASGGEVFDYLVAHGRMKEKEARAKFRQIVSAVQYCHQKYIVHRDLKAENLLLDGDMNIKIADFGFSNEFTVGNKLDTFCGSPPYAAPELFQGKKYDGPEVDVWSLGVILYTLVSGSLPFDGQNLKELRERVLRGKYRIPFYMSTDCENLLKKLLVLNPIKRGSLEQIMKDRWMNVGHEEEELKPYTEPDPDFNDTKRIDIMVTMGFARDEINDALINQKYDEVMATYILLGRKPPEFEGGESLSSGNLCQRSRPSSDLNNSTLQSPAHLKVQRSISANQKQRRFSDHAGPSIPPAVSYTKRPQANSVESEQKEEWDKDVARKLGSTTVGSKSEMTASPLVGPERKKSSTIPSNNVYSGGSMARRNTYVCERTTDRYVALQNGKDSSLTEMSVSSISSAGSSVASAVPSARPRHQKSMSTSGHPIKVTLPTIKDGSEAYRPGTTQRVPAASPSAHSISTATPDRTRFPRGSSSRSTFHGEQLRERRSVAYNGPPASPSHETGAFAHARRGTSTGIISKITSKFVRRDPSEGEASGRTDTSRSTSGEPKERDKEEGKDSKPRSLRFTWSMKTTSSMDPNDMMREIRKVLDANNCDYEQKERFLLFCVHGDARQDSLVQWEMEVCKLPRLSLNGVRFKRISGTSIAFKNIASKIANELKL

T2 sequence (P00533 with tags, fused parts or gaps DEL752-759): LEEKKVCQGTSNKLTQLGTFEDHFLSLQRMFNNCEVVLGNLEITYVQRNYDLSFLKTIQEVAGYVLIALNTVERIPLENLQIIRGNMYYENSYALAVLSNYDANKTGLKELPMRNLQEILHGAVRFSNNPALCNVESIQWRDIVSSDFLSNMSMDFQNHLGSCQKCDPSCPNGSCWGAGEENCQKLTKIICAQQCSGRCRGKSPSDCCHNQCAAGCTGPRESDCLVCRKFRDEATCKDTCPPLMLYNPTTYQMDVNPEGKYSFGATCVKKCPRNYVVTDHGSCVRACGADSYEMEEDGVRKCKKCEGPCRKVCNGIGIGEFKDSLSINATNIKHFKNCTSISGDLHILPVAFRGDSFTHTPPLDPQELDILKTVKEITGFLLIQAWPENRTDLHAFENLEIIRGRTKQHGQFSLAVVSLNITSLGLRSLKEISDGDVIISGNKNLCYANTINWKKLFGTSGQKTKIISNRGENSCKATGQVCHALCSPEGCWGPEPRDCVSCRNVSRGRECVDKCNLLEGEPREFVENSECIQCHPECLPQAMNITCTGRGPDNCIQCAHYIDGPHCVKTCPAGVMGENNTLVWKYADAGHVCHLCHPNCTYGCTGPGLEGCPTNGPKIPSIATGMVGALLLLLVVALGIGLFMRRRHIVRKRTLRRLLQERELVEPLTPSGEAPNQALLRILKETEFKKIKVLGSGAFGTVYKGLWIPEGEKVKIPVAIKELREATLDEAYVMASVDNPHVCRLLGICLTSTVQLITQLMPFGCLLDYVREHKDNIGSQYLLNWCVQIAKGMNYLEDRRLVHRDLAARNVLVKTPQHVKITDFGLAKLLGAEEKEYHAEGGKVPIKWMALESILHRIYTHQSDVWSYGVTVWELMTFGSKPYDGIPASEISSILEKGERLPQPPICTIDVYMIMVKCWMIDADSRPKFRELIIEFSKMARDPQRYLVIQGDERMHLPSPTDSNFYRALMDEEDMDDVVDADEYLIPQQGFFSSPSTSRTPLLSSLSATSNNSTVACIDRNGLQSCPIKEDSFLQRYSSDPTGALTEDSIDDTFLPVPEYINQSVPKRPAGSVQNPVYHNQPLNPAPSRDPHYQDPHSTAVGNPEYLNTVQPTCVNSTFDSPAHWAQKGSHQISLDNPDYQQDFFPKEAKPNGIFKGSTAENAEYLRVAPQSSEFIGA
T4 sequence (Q14004 whole entry): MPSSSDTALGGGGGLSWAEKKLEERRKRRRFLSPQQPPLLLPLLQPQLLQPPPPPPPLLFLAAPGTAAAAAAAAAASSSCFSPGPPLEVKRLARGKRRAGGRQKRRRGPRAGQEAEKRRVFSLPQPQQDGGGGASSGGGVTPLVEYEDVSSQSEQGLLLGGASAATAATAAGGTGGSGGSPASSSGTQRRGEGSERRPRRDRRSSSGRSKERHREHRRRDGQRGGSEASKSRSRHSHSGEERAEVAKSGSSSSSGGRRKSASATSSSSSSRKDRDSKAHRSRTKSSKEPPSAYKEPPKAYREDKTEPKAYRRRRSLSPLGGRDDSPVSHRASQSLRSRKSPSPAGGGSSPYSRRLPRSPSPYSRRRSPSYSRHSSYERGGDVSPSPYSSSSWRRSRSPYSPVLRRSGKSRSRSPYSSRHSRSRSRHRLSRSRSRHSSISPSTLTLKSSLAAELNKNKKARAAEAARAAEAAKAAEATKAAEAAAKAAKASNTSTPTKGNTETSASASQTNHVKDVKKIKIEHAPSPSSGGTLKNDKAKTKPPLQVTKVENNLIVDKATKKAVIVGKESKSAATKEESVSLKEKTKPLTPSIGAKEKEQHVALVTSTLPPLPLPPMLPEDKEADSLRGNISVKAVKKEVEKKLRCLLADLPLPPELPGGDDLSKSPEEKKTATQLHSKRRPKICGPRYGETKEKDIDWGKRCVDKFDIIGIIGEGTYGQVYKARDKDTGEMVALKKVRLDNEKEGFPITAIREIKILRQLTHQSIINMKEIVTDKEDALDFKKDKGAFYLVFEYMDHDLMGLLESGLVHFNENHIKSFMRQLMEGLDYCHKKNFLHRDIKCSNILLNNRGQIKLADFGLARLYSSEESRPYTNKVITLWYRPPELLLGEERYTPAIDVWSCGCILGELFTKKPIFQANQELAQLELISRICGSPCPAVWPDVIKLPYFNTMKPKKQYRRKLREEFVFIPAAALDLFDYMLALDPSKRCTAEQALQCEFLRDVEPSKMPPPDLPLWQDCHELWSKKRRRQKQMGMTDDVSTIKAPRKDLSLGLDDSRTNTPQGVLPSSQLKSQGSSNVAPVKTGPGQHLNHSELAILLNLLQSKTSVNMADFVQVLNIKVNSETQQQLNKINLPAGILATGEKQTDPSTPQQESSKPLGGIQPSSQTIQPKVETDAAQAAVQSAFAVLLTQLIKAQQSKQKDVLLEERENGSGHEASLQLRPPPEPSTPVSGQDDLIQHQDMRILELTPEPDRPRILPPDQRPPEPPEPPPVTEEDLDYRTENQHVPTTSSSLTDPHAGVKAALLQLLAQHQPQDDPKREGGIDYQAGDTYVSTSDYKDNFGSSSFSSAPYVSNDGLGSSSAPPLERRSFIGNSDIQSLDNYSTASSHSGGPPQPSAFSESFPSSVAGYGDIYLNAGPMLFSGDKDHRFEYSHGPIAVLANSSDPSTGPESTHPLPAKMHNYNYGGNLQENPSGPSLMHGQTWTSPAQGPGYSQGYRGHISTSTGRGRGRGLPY

Row | Compound | remaining binding at 1 µM (panel of 468 kinases [1]) [%] | remaining binding at 1 µM (panel of 468 kinases [2]) [%] | remaining binding at 1 µM (panel of 468 kinases [3]; FLT3-autoinhibited) [%] | remaining binding at 1 µM (panel of 468 kinases [3]; FLT3) [%] | remaining binding at 1 µM (panel of 468 kinases [4]) [%] | remaining binding at 1 µM (panel of 468 kinases [5]) [%]
1 | CNc1nc(Nc2ccc(S(=O)(=O)N3CCC(N4CCOCC4)CC3)cc2OC)nc2[nH]cc(Cl)c12 [Compound 12, 5-chloro-N2-(2-methoxy-4-((4-morpholinopiperidin-1-yl)sulfonyl)phenyl)-N4-methyl-7H-pyrrolo[2,3-d]pyrimidine-2,4-diamine] | 100 | 100 | 87 | 100 | 54 | 100
2 | CNc1nc(Nc2ccc(C(=O)N3CCC(N4CCOCC4)CC3)c3c2OCO3)nc2[nH]cc(Cl)c12 [Compound 75, (7-((5-chloro-4-(methylamino)-7H-pyrrolo[2,3-d]pyrimidin-2-yl)amino)benzo[d][1,3]dioxol-4-yl)(4-morpholinopiperidin-1-yl)methanone] | 100 | 94 | 83 | 40 | 57 | 100
3 | CNc1nc(Nc2ccc(P3(=O)CCN(C4CCOCC4)CC3)cc2OC)nc2[nH]cc(Cl)c12 [Compound 77, 4-(4-((5-chloro-4-(methylamino)-7H-pyrrolo[2,3-d]pyrimidin-2-yl)amino)-3-methoxyphenyl)-1-(tetrahydro-2H-pyran-4-yl)-1,4-azaphosphinane 4-oxide] | 93 | 100 | 94 | 86 | 55 | 96
